According to patent US7541346B2, “Pancratistatin cyclic phosphate prodrugs and phenpanstatin cyclic phosphate prodrugs” (Arizona Board of Regents, a body corporate of the State of …, priority 2003, dated 2009):
≈ marks a conversion by molar mass, not a printed value. Like-named read-outs stand apart in the source and are kept apart here.

Experiments:
[1] = system: BXPC-3; assay: Human cancer cell line inhibitory activity, Pancreas-a BXPC-3; format: cell-based; conditions: for GI50: Homo sapiens, BXPC-3, read-out: GI50 Pancreas-a BXPC-3
[2] = system: NCI-H460; assay: Human cancer cell line inhibitory activity, Lung-NSC NCI-H460; format: cell-based; conditions: for GI50: Homo sapiens, NCI-H460, read-out: GI50 Lung-NSC NCI-H460
[3] = system: KM20L2; assay: Human cancer cell line inhibitory activity, Colon KM20L2; format: cell-based; conditions: for GI50: Homo sapiens, KM-20L2, read-out: GI50 Colon KM20L2
[4] = system: SF268; assay: Human cancer cell line inhibitory activity, CNS SF268; format: cell-based; conditions: for GI50: Homo sapiens, SF-268, read-out: GI50 CNS SF268
[5] = system: DU-145; assay: Human cancer cell line inhibitory activity, Prostate DU-145; format: cell-based; conditions: for GI50: Homo sapiens, DU-145, read-out: GI50 Prostate DU-145
[6] = system: MCF-7; assay: Human cancer cell line inhibitory activity, Breast MCF-7; format: cell-based; conditions: for GI50: Homo sapiens, MCF7, read-out: GI50 Breast MCF-7
[7] = system: Encephalitozoon intestinalis; conditions: in vitro; cited from earlier work

| SMILES | GI50 Pancreas-a BXPC-3 [1] [µg/mL] | GI50 Lung-NSC NCI-H460 [2] [µg/mL] | GI50 Colon KM20L2 [3] [µg/mL] | GI50 CNS SF268 [4] [µg/mL] | GI50 Prostate DU-145 [5] [µg/mL] | GI50 Breast MCF-7 [6] [µg/mL] | further results |
| --- | --- | --- | --- | --- | --- | --- | --- |
| C=C[C@H]1CN2CC[C@H]1C[C@@H]2[C@@H](O)c1ccnc2ccc(OC)cc12.O=C1N[C@H]2[C@H](OP(=O)(O)O)[C@H](O)[C@@H](O)[C@H](O)[C@@H]2c2cc3c(c(O)c21)OCO3 [Compound 4l, Quinidium Pancratistatin 4-O-Phosphate] | 0.34 | 0.36 | 0.23 | 0.27 | 0.20 | 0.38 | – |
| O=C1N[C@H]2[C@H](OP(=O)([O-])[O-])[C@H](O)[C@@H](O)[C@H](O)[C@@H]2c2cc3c(c(O)c21)OCO3.[Zn+2] [Compound 4g, Zinc Pancratistatin 4-O-Phosphate] | 0.27 | 0.42 | 0.30 | 0.38 | 0.17 | 0.47 | – |
| C1CNCCN1.O=C1N[C@H]2[C@H](OP(=O)(O)O)[C@H](O)[C@@H](O)[C@H](O)[C@@H]2c2cc3c(c(O)c21)OCO3 [Compound 4h, Piperazinium Pancratistatin 4-O-Phosphate] | 0.31 | 0.35 | 0.24 | 0.27 | 0.21 | 0.38 | – |
| C=C[C@H]1CN2CC[C@H]1C[C@H]2[C@H](O)c1ccnc2ccc(OC)cc12.O=C1N[C@H]2[C@H](OP(=O)(O)O)[C@H](O)[C@@H](O)[C@H](O)[C@@H]2c2cc3c(c(O)c21)OCO3 [Compound 4k, Quinium Pancratistatin 4-O-Phosphate] | 0.23 | 0.31 | 0.22 | 0.28 | 0.15 | 0.35 | – |
| O=C1N[C@H]2[C@H](OP(=O)([O-])[O-])[C@H](O)[C@@H](O)[C@H](O)[C@@H]2c2cc3c(c(O)c21)OCO3.[K+].[K+] [Compound 4d, Potassium Pancratistatin 4-O-phosphate] | 0.45 | 0.40 | 0.30 | 0.39 | 0.22 | 0.46 | – |
| O=C1N[C@H]2[C@H](OP(=O)(O)O)[C@H](O)[C@@H](O)[C@H](O)[C@@H]2c2cc3c(c(O)c21)OCO3.c1c[nH]cn1 [Compound 4j, Imidazolium Pancratistatin 4-O-Phosphate] | 0.25 | 0.25 | 0.13 | 0.21 | 0.13 | 0.33 | – |
| O=C1N[C@H]2[C@@H]3OP(=O)([O-])O[C@@H]3[C@@H](O)[C@H](O)[C@@H]2c2cc3c(c(O)c21)OCO3.[Na+] [Compound 5a, Sodium Pancratistatin 3,4-cyclic Phosphate] | 3.3 | 3.8 | 3.7 | 2.9 | 2.3 | 2.9 | – |
| O=C1N[C@H]2[C@H](OP(=O)([O-])[O-])[C@H](O)[C@@H](O)[C@H](O)[C@@H]2c2cc3c(c(O)c21)OCO3.[Ca+2] [Compound 4f, Calcium Pancratistatin 4-O-Phosphate] | 0.25 | 0.27 | 0.23 | 0.26 | 0.12 | 0.36 | – |
| O=C(O[C@H]1[C@H](O)[C@H]2OP(=O)([O-])O[C@H]2[C@@H]2NC(=O)c3c(cc4c(c3O)OCO4)[C@H]21)c1ccccc1.[Na+] [Compound 3b, Sodium Phenpanstatin 3,4,O-cyclic Phosphate] | – | – | – | – | – | – | GI50 Pancreas-a BXPC-3 ([1]; human cancer cell line BXPC-3): 0.25 µg/mL; GI50 Lung-NSC NCI-H460 ([2]; human cancer cell line NCI-H460): 0.029 µg/mL; GI50 Colon KM20L2 ([3]; human cancer cell line KM20L2): 0.13 µg/mL; GI50 CNS SF268 ([4]; human cancer cell line SF268): 0.17 µg/mL; GI50 Prostate DU-145 ([5]; human cancer cell line DU-145): 0.13 µg/mL; GI50 Breast MCF-7 ([6]; human cancer cell line MCF-7): 0.041 µg/mL |
| O=C(O[C@H]1[C@H](O)[C@@H](O)[C@@H](O)[C@@H]2NC(=O)c3c(cc4c(c3O)OCO4)[C@H]21)c1ccccc1 [Compound 3a, phenpanstatin] | – | – | – | – | – | – | GI50 [1]: 0.0019 µg/mL (≈ 0.00442 µM); GI50 [2]: 0.0001 µg/mL (≈ 0.000233 µM); GI50 [3]: 0.00037 µg/mL (≈ 0.000862 µM); GI50 [4]: 0.00055 µg/mL (≈ 0.00128 µM); GI50 [5]: 0.00021 µg/mL (≈ 0.000489 µM); GI50 [6]: 0.00031 µg/mL (≈ 0.000722 µM) |
| O=C1N[C@@H]2C(=C[C@H](O)[C@@H](O)[C@H]2O)c2cc3c(c(O)c21)OCO3 [Compound 2a, narciclasine, reference compound] | 0.0035 (≈ 0.0114 µM) | 0.0084 (≈ 0.0273 µM) | 0.0032 (≈ 0.0104 µM) | 0.0031 (≈ 0.0101 µM) | 0.0032 (≈ 0.0104 µM) | 0.0032 (≈ 0.0104 µM) | – |
| O=C1N[C@H]2[C@H](OP(=O)([O-])[O-])[C@H](O)[C@@H](O)[C@H](O)[C@@H]2c2cc3c(c(O)c21)OCO3.[Na+].[Na+] [Compound 4a, Sodium Pancratistatin 4-O-phosphate] | 0.18 | 0.38 | 0.24 | 0.12 | 0.94 | 0.18 | – |
| O=C1N[C@H]2[C@H](O)[C@H](O)[C@@H](O)[C@H](O)[C@@H]2c2cc3c(c(O)c21)OCO3 [Compound 1a, (+)-pancratistatin, reference compound] | – | – | – | – | – | – | GI50 [1]: 0.02 µg/mL (≈ 0.0615 µM); GI50 [2]: 0.032 µg/mL (≈ 0.0984 µM); activity against microspirochesis [7]: remarkable activity; GI50 [3]: 0.025 µg/mL (≈ 0.0769 µM); GI50 [4]: 0.014 µg/mL (≈ 0.043 µM); GI50 [5]: 0.015 µg/mL (≈ 0.0461 µM); GI50 [6]: 0.023 µg/mL (≈ 0.0707 µM) |
| O=C1N[C@H]2[C@H](OP(=O)([O-])[O-])[C@H](O)[C@@H](O)[C@H](O)[C@@H]2c2cc3c(c(O)c21)OCO3.[Mg+2] [Compound 4e, Magnesium Pancratistatin 4-O-Phosphate] | 0.40 | 0.42 | 0.36 | 0.36 | 0.22 | 0.44 | – |
| C1COCCN1.O=C1N[C@H]2[C@H](OP(=O)(O)O)[C@H](O)[C@@H](O)[C@H](O)[C@@H]2c2cc3c(c(O)c21)OCO3 [Compound 4i, Morpholinium Pancratistatin 4-O-Phosphate] | 0.29 | 0.46 | 0.37 | 0.38 | 0.18 | 0.40 | – |
| O=C1N[C@H]2[C@H](OP(=O)([O-])O)[C@H](O)[C@@H](O)[C@H](O)[C@@H]2c2cc3c(c(O)c21)OCO3.[Li+] [Compound 4c, Lithium Pancratistatin 4-O-phosphate] | 0.30 | 0.35 | 0.25 | 0.28 | 0.20 | 0.39 | – |
| O=C1N[C@H]2[C@H](O)[C@H](O)[C@@H](O)[C@H](O)[C@@H]2c2cc3c(c(OP(=O)([O-])[O-])c21)OCO3.[Na+].[Na+] [Compound 1b, sodium pancratistatin 7-O-phosphate, reference compound] | 0.20 | 0.19 | 0.17 | 0.079 | 0.026 | 0.20 | – |
